Tests used:
Assay in all cases: SILAC competitive chemical proteomic assay (TH211 probe, LC-MS/MS)
Format in all cases: cell-based
[1] = biological target: T1, 14-3-3 protein epsilon (Homo sapiens, UniProt P62258); conditions: TH207 inhibitor; HEK293T soluble fraction; P62258.1 lysine 215
T1 construct: endogenous in cells; host or cells: HEK293T
T1 sequence (P62258 1-255): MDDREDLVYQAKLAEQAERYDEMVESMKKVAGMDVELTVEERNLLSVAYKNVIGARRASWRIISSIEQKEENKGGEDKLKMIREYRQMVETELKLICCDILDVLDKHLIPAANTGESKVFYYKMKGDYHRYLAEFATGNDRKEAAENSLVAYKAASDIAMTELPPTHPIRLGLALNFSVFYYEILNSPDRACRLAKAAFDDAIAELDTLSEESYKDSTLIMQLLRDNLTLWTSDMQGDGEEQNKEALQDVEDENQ
Protocol: (§1) The light and heavy proteomes (2.3 mg/mL, 432 μL) prepared from HEK293T cells that were pretreated in situ with vehicle (DMSO) or the inhibitor (2 μM), respectively, at 37° C. for 1 hr followed by probe TH211 treatment (50 μM) for 2 h, were directly were subjected to click reaction with the desthiobiotin-PEG3-azide (10 mM in DMSO, 10 μL, final concentration 200 μM) in the presence of TCEP (50 mM, 10 μL), TBTA (1.7 mM, 33 μL) and CuSO4 (50 mM, 10 μL) at room temperature for 1 hr. The light and the heavy samples were mixed in the chloroform-methanol extraction step. The subsequent steps including reduction with dithiothreitol, alkylation with iodoacetamide, digestion with Trypsin/Lys-C, enrichment with avidin beads were conducted as previously described^26.

[2] = biological target: T2, Sorting nexin-6 (Homo sapiens, UniProt Q9UNH7); conditions: TH207 inhibitor; HEK293T soluble fraction; Q9UNH7.1 lysine 204
T2 construct: endogenous in cells; host or cells: HEK293T
T2 sequence (Q9UNH7 1-406): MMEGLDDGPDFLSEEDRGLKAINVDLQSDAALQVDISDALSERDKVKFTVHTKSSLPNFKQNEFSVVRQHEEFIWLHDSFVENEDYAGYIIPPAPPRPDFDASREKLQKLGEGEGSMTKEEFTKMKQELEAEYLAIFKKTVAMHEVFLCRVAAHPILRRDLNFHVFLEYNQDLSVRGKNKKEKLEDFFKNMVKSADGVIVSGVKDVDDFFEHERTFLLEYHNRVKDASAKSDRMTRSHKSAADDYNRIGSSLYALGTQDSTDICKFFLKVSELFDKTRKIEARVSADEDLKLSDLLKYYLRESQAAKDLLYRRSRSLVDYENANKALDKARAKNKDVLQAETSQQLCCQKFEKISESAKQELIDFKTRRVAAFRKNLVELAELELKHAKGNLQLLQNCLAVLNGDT
Protocol: as §1

[3] = biological target: T3, Alpha-enolase (Homo sapiens, UniProt P06733); conditions: TH207 inhibitor; HEK293T soluble fraction; P06733.2 lysine 80
T3 construct: endogenous in cells; host or cells: HEK293T
Protocol: as §1

[4] = biological target: T4, Phosphotyrosine protein phosphatase (Homo sapiens, UniProt P24666); conditions: TH207 inhibitor; HEK293T soluble fraction; P24666.3 tyrosine 132
T4 construct: endogenous in cells; host or cells: HEK293T
T4 sequence (P24666 1-158): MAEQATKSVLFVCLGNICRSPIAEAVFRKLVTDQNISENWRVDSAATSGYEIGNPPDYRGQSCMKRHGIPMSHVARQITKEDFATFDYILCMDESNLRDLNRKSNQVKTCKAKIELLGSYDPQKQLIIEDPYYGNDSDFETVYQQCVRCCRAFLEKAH
Protocol: as §1

[5] = tested on: Major capsid protein VP1; conditions: TH207 inhibitor; HEK293T soluble fraction; Q98WD1 lysine 235
Protocol: as §1

[6] = biological target: T5, Coronin-1C (Homo sapiens, UniProt Q9ULV4); conditions: TH207 inhibitor; HEK293T soluble fraction; Q9ULV4.1 tyrosine 301
T5 construct: endogenous in cells; host or cells: HEK293T
Protocol: as §1

[7] = biological target: T6, Proteasome subunit alpha type-2 (Homo sapiens, UniProt P25787); conditions: TH207 inhibitor; HEK293T soluble fraction; P25787.2 lysine 92
T6 construct: endogenous in cells; host or cells: HEK293T
Protocol: as §1

[8] = biological target: T7, Isoleucine tRNA ligase (Homo sapiens, UniProt Q9NSE4); conditions: TH207 inhibitor; HEK293T soluble fraction; Q9NSE4.2 tyrosine 260
T7 construct: endogenous in cells; host or cells: HEK293T
T7 sequence (Q9NSE4 49-1012): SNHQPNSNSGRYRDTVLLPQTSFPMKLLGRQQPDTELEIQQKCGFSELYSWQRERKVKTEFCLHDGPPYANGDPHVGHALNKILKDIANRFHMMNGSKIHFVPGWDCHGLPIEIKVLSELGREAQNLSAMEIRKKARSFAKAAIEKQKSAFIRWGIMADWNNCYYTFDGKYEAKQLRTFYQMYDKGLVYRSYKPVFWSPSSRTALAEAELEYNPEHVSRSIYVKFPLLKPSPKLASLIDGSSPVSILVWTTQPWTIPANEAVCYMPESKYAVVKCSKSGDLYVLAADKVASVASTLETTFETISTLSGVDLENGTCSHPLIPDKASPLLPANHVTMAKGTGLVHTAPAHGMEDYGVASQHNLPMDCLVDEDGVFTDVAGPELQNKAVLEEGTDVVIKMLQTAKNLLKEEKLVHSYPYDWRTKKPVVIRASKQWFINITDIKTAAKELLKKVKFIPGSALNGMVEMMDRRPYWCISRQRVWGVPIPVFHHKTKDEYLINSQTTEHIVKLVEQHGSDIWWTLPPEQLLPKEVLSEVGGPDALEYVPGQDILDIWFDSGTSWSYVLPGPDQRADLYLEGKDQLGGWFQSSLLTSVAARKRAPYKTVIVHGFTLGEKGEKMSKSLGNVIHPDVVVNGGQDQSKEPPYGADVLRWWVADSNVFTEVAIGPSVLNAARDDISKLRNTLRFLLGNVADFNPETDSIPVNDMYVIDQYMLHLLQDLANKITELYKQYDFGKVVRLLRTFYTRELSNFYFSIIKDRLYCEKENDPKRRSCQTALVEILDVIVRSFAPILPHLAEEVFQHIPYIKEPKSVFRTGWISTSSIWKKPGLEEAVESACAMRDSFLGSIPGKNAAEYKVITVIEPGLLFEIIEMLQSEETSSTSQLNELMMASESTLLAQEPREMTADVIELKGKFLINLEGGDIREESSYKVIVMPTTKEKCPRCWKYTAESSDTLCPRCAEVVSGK
Protocol: as §1

[9] = biological target: T8, Inosine-5′-monophosphate dehydrogenase 2 (Homo sapiens, UniProt P12268); conditions: TH207 inhibitor; HEK293T soluble fraction; P12268.2 tyrosine 509
T8 construct: endogenous in cells; host or cells: HEK293T
Protocol: as §1

T3 sequence (P06733 whole entry): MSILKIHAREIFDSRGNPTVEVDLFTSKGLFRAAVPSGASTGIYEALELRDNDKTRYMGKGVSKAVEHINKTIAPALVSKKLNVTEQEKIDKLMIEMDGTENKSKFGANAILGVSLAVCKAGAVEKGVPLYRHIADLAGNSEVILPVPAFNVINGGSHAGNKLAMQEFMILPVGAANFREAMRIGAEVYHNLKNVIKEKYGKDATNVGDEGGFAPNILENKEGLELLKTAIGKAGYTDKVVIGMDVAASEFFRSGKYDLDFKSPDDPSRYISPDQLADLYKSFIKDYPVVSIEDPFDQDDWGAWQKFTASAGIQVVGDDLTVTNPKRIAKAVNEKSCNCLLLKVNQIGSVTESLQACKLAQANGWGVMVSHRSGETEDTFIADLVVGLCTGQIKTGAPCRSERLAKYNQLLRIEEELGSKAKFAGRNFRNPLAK
T8 sequence (P12268 2-514 limits assumed): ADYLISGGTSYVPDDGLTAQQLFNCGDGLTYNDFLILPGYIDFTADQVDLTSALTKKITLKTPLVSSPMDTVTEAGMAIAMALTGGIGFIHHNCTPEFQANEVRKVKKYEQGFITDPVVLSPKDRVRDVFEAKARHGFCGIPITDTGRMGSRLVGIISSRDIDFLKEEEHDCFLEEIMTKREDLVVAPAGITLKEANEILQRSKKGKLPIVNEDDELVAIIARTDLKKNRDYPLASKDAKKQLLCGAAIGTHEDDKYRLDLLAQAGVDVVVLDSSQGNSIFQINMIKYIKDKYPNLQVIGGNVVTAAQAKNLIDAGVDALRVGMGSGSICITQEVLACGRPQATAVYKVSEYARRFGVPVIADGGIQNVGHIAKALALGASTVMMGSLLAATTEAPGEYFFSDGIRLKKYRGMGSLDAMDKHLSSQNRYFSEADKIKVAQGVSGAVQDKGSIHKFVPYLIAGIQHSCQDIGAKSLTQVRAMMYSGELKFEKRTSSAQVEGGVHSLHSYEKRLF
T5 sequence (Q9ULV4 whole entry): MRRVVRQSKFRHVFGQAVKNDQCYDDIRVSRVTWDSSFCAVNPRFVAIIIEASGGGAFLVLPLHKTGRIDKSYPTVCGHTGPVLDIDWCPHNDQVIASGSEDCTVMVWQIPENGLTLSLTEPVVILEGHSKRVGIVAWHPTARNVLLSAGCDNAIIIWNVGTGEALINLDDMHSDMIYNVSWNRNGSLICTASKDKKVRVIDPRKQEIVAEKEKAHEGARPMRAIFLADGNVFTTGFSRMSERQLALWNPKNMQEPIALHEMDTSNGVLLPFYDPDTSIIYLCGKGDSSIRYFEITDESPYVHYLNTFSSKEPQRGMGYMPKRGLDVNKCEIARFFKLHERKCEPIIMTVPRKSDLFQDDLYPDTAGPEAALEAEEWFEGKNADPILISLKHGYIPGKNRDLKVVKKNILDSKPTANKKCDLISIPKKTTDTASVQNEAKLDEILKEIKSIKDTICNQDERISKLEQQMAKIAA

Compound: Cc1ccc(S(=O)(=O)n2cc(CCN3CCC(=C(c4ccc(F)cc4)c4ccc(F)cc4)CC3)nn2)cc1 [TH207, 4-(Bis(4-fluorophenyl)methylene)-1-(2-(1-tosyl-1H-1,2,3-triazol-4-yl)ethyl)piperidine]
- Normalized SILAC ratio (SR), 14-3-3 protein epsilon K215 [1]: 3.7
- Normalized SILAC ratio (SR), Sorting nexin-6 K204 [2]: 6.9
- Normalized SILAC ratio (SR), Alpha-enolase K80 [3]: 1.6
- Normalized SILAC ratio (SR), Phosphotyrosine protein phosphatase Y132 [4]: 1.9
- Normalized SILAC ratio (SR), Major capsid protein VP1 K235 [5]: 1.3
- Normalized SILAC ratio (SR), Coronin-1C Y301 [6]: 20
- Normalized SILAC ratio (SR), Proteasome subunit alpha type-2 K92 [7]: 1.2
- Normalized SILAC ratio (SR), Isoleucine tRNA ligase Y260 [8]: 1.8
- Normalized SILAC ratio (SR), Inosine-5′-monophosphate dehydrogenase 2 Y509 [9]: 1.6

— patent US20240400542A1 (University of Virginia Patent Foundation, priority 2021, published 2024)
